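1) Cells in 96-well plates. 2) Compound, 48 h, 5 concentrations. 3) Linear interpolation between surrounding doses. 4) Unreached endpoint = highest concentration. At the GI50, growth is halved.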 Calls of active or inactive are those of the source. Rule as the data show it: active = GI50 up to about 1.1 µM and inactive = higher.
Key:
Assay in all cases: NCI anticancer screen, dose series, 48 h
[1] = system: CAKI-1
[2] = system: HOP-92
[3] = system: IGROV-1
[4] = system: MDA-N
[5] = system: MCF7
[6] = system: CCRF-CEM
[7] = system: HOP-62
[8] = system: NCI-H226
[9] = system: ACHN
[10] = system: OVCAR-4
[11] = system: HCC 2998
[12] = system: NCI/ADR-RES
[13] = system: SR
[14] = system: SW-620
[15] = system: OVCAR-5
[16] = system: RXF 393
[17] = system: OVCAR-3
[18] = system: SK-MEL-5
[19] = system: SNB-75
[20] = system: HCT-116
[21] = system: RPMI-8226
[22] = system: BT-549
[23] = system: NCI-H522
[24] = system: SF-295
[25] = system: SF-539
[26] = system: M14
[27] = system: COLO 205
[28] = system: PC-3
[29] = system: HCT-15
[30] = system: EKVX
[31] = system: NCI-H460
[32] = system: KM12
[33] = system: 786-0
[34] = system: SK-MEL-28
[35] = system: K562
[36] = system: TK-10
[37] = system: NCI-H23
[38] = system: HL-60
[39] = system: SN12C
[40] = system: Hs-578T
[41] = system: HT-29
[42] = system: SK-MEL-2
[43] = system: UACC-62
[44] = system: DU-145
[45] = system: A549
[46] = system: MDA-MB-435
[47] = system: UO-31
[48] = system: SNB-19
[49] = system: SF-268
[50] = system: MDA-MB-231
[51] = system: MOLT-4
[52] = system: SK-OV-3
[53] = system: LOX IMVI
[54] = system: Malme-3M
[55] = system: U-251
[56] = system: A498
[57] = system: UACC-257
[58] = system: T47D
[59] = system: OVCAR-8

C=C(C)[C@@H](C(=O)OC)N1C(=O)c2ccccc2C1=O
GI50 [1]: > 100 µM (inactive) | GI50 [2]: > 100 µM (inactive) | GI50 [3]: > 100 µM (inactive) | GI50 [4]: > 100 µM (inactive) | GI50 [5]: > 100 µM (inactive) | GI50 [6]: > 100 µM (inactive) | GI50 [7]: > 100 µM (inactive) | GI50 [8]: > 100 µM (inactive) | GI50 [9]: > 100 µM (inactive) | GI50 [10]: > 100 µM (inactive) | GI50 [11]: > 100 µM (inactive) | GI50 [12]: > 100 µM (inactive) | GI50 [13]: > 100 µM (inactive) | GI50 [14]: > 100 µM (inactive) | GI50 [15]: > 100 µM (inactive) | GI50 [16]: > 100 µM (inactive) | GI50 [17]: > 100 µM (inactive) | GI50 [18]: > 100 µM (inactive) | GI50 [19]: > 100 µM (inactive) | GI50 [20]: > 100 µM (inactive) | GI50 [21]: > 100 µM (inactive) | GI50 [22]: > 100 µM (inactive) | GI50 [23]: > 100 µM (inactive) | GI50 [24]: > 100 µM (inactive) | GI50 [25]: > 100 µM (inactive) | GI50 [26]: > 100 µM (inactive) | GI50 [27]: > 100 µM (inactive) | GI50 [28]: > 100 µM (inactive) | GI50 [29]: > 100 µM | GI50 [30]: > 100 µM (inactive) | GI50 [31]: > 100 µM (inactive) | GI50 [32]: > 100 µM (inactive) | GI50 [33]: > 100 µM (inactive) | GI50 [34]: > 100 µM (inactive) | GI50 [35]: > 100 µM (inactive) | GI50 [36]: > 100 µM (inactive) | GI50 [37]: > 100 µM (inactive) | GI50 [38]: > 100 µM (inactive) | GI50 [39]: > 100 µM (inactive) | GI50 [40]: > 100 µM (inactive) | GI50 [41]: > 100 µM (inactive) | GI50 [42]: > 100 µM (inactive) | GI50 [43]: > 100 µM (inactive) | GI50 [44]: > 100 µM (inactive) | GI50 [45]: > 100 µM (inactive) | GI50 [46]: > 100 µM (inactive) | GI50 [47]: > 100 µM (inactive) | GI50 [48]: > 100 µM (inactive) | GI50 [49]: > 100 µM (inactive) | GI50 [50]: > 100 µM (inactive) | GI50 [51]: > 100 µM (inactive) | GI50 [52]: > 100 µM (inactive) | GI50 [53]: > 100 µM (inactive) | GI50 [54]: > 100 µM (inactive) | GI50 [55]: > 100 µM (inactive) | GI50 [56]: > 100 µM (inactive) | GI50 [57]: > 100 µM (inactive) | GI50 [58]: > 100 µM (inactive) | GI50 [59]: > 100 µM (inactive)

Cc1ccc(NC(=O)c2ccc(OP(=O)(O)Nc3ccc(C)cc3)cc2)cc1
GI50 [1]: > 100 µM (inactive) | GI50 [2]: > 100 µM (inactive) | GI50 [3]: > 100 µM (inactive) | GI50 [4]: > 100 µM (inactive) | GI50 [5]: > 100 µM (inactive) | GI50 [6]: > 100 µM (inactive) | GI50 [7]: > 100 µM (inactive) | GI50 [8]: > 100 µM (inactive) | GI50 [9]: > 100 µM (inactive) | GI50 [10]: > 100 µM (inactive) | GI50 [11]: > 100 µM (inactive) | GI50 [12]: > 100 µM (inactive) | GI50 [13]: > 100 µM (inactive) | GI50 [14]: > 100 µM (inactive) | GI50 [15]: > 100 µM (inactive) | GI50 [16]: 50.7 µM (inactive) | GI50 [17]: > 100 µM (inactive) | GI50 [18]: > 100 µM (inactive) | GI50 [19]: > 100 µM (inactive) | GI50 [20]: > 100 µM (inactive) | GI50 [21]: > 100 µM (inactive) | GI50 [22]: > 100 µM (inactive) | GI50 [23]: 78.3 µM (inactive) | GI50 [24]: > 100 µM (inactive) | GI50 [25]: > 100 µM (inactive) | GI50 [26]: 64.4 µM (inactive) | GI50 [27]: > 100 µM (inactive) | GI50 [28]: > 100 µM (inactive) | GI50 [29]: > 100 µM | GI50 [30]: > 100 µM (inactive) | GI50 [31]: > 100 µM (inactive) | GI50 [32]: > 100 µM (inactive) | GI50 [33]: > 100 µM (inactive) | GI50 [34]: > 100 µM (inactive) | GI50 [35]: > 100 µM (inactive) | GI50 [36]: > 100 µM (inactive) | GI50 [37]: > 100 µM (inactive) | GI50 [38]: > 100 µM (inactive) | GI50 [39]: > 100 µM (inactive) | GI50 [40]: 92.7 µM (inactive) | GI50 [41]: > 100 µM (inactive) | GI50 [42]: 12 µM (inactive) | GI50 [43]: > 100 µM (inactive) | GI50 [44]: > 100 µM (inactive) | GI50 [45]: > 100 µM (inactive) | GI50 [46]: > 100 µM (inactive) | GI50 [47]: 66.8 µM (inactive) | GI50 [48]: > 100 µM (inactive) | GI50 [49]: > 100 µM (inactive) | GI50 [50]: > 100 µM (inactive) | GI50 [51]: > 100 µM (inactive) | GI50 [52]: > 100 µM (inactive) | GI50 [53]: > 100 µM (inactive) | GI50 [54]: > 100 µM (inactive) | GI50 [55]: > 100 µM (inactive) | GI50 [56]: > 100 µM (inactive) | GI50 [57]: > 100 µM (inactive) | GI50 [58]: > 100 µM (inactive) | GI50 [59]: > 100 µM (inactive)

Source: ChEMBL document CHEMBL1201862, “PubChem BioAssay data set” (2004)
